IC50 and AC50 data for 20 compounds are collected here from US20230159496A1, “COMPOUNDS AND METHODS FOR MODULATING SPLICING” (REMIX THERAPEUTICS INC., priority 2020, published 2023).

What all share (assay type): cell-based
For one assay, the system named is HTT CJ mRNA. Kind of assay: Gene panel canonical junction qPCR assay, HTT. As to conditions: read-out: HTT IC50. In outline:
(§1)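 A673 or K562 cells were treated for 24 h at 37 °C with an 11-point 3-fold dilution, top dose 10 uM, DMSO ≤0.25%. Canonical junction mRNA in lysates was quantified by one-step RT-qPCR and normalized to GAPDH, GUSB or PPIA.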
Background: In qPCR the cycle at which signal appears reflects the starting amount.

The test system of a further assay is SMN2 CJ mRNA. Kind of assay: Gene panel canonical junction qPCR assay, SMN2. The note with it: read-out: SMN2 IC50. In outline:
as §1

Another assay deals with Target C CJ mRNA. Kind of assay: Gene panel canonical junction qPCR assay, Target C. As to conditions: read-out: Target C IC50. In a few lines:
as §1

The subject of the next assay is HTT mRNA. Kind of assay: Splicing assay (RT-qPCR) monitoring HTT canonical junction (CJ) and alternative junction (AJ) mRNA isoforms. In outline: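 A673 or K562 cells treated 24 h at 37 °C with an 11-point 3-fold dilution (top 10 uM final, DMSO ≤0.25%). Lysates assayed by one-step RT-qPCR for HTT CJ and AJ isoforms, normalized to GAPDH, GUSB (K562) or PPIA (A673).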

Where [1] appears, read: decrease in CJ mRNA levels, gene panel.
[2] abbreviates: decrease in CJ mRNA (50% response), A673 or K562 cells, 24 h treatment, top dose 10 uM, read-out: HTT CJ AC50.
The mark [3] stands for this setting: increase in AJ mRNA (50% response), A673 or K562 cells, 24 h treatment, top dose 10 uM, read-out: HTT AJ AC50.

Read-outs that look alike come from different tables or passages of the source. Bounds are passed on as bounds.

One may read the IC50 as the concentration needed to halve the response being measured. In general, AC50 refers to the concentration giving half of the maximal activity seen. On to `CN1CCC(Nc2ccc3c(=O)n(-c4ccc5nn(C)cc5c4)cnc3c2)CC1` [Compound 163, 3-(2-methyl-2H-indazol-5-yl)-7-((1-methylpiperidin-4-yl)amino)quinazolin-4(3H)-one], for which the IC50 with HTT CJ mRNA, with SMN2 CJ mRNA and with Target C CJ mRNA was more than 10 µM in each case. Also, the AC50 in the assay on HTT mRNA (24 h, read-out: HTT AJ AC50 (nM)) was more than 10000 nM; in the assay with HTT mRNA (24 h, read-out: HTT CJ AC50 (nM)) it was more than 10000 nM.

Take `Cc1cn2cc(-c3ccc4c(=O)n(C5CCNCC5)cnc4c3)c(C)cc2n1` [Compound 244]: the IC50 was more than 10 µM in the assay with HTT CJ mRNA (setting [1]), 0.1 to 1 µM in the assay with SMN2 CJ mRNA (setting [1]) and more than 10 µM with Target C CJ mRNA (setting [1]). In addition, the AC50 in the assay with HTT mRNA (setting [2]) and in the assay on HTT mRNA (setting [3]) was more than 10000 nM in each case.

Take `Cc1cn2cc(-c3ccc4c(c3)CCN(C3CCNCC3)C4=O)cc(F)c2n1` [Compound 247, 6-[8-fluoro-2-methylimidazo[1,2-a]pyridin-6-yl]-2-(piperidin-4-yl)-3,4-dihydroisoquinolin-1-one]: the values for the IC50 in the assay with HTT CJ mRNA (setting [1]), with SMN2 CJ mRNA (setting [1]) and in the assay with Target C CJ mRNA (setting [1]) were 1 to 10 µM, less than 0.1 µM and 1 to 10 µM, respectively. Moreover, the AC50 in the assay with HTT mRNA (setting [2]) and in the assay with HTT mRNA (setting [3]) was 1000 to 10000 nM each time.

Regarding `Cn1cc2cc(-c3ccc4c(c3)CCN(C3CCNCC3)C4=O)cc(F)c2n1` [Compound 225], the IC50 with HTT CJ mRNA (setting [1]), with SMN2 CJ mRNA (setting [1]) and in the assay on Target C CJ mRNA (setting [1]) was more than 10 µM in each case. Also, the AC50 with HTT mRNA (setting [2]) and in the assay with HTT mRNA (setting [3]) was more than 10000 nM each time.

On to `Cn1cc2cc(-c3ccc4c(=O)n(C5CCNCC5)ncc4c3)cc(F)c2n1` [Compound 249], for which the IC50 in the assay on HTT CJ mRNA (setting [1]), with SMN2 CJ mRNA (setting [1]) and in the assay on Target C CJ mRNA (setting [1]) was 1 to 10 µM throughout. Also, the AC50 with HTT mRNA (setting [2]) and with HTT mRNA (setting [3]) was 1000 to 10000 nM each time.

With `CN1CCN(c2ccc3c(=O)n(-c4ccc5cn(C)nc5c4)cnc3c2)CC1` [Compound 178, 3-(2-methyl-2H-indazol-6-yl)-7-(4-methylpiperazin-1-yl)quinazolin-4(3H)-one], the IC50 with HTT CJ mRNA (setting [1]), in the assay with SMN2 CJ mRNA (setting [1]) and in the assay with Target C CJ mRNA (setting [1]) was more than 10 µM throughout. Besides, the AC50 with HTT mRNA (setting [2]) and with HTT mRNA (setting [3]) was more than 10000 nM in each case.

For the compound `Cc1cn2nc(-c3ccc4c(=O)n(C5CCN(C)CC5)cnc4c3)nc2c(C)n1` [Compound 288, 7-{6,8-dimethyl-[1,2,4]triazolo[1,5-a]pyrazin-2-yl}-3-(1-methylpiperidin-4-yl)quinazolin-4-one], the IC50 in the assay with HTT CJ mRNA (setting [1]), with SMN2 CJ mRNA (setting [1]) and in the assay with Target C CJ mRNA (setting [1]) was 1 to 10 µM in each case. The AC50 in the assay on HTT mRNA (setting [2]) and in the assay with HTT mRNA (setting [3]) was 1000 to 10000 nM throughout.

For `Cc1cn2nc(-c3ccc4c(=O)n(C5CCN(C)CC5)ncc4c3)cc(C)c2n1` [Compound 265], the values for the IC50 with HTT CJ mRNA (setting [1]), in the assay on SMN2 CJ mRNA (setting [1]) and with Target C CJ mRNA (setting [1]) were less than 0.1 µM, less than 0.1 µM and 0.1 to 1 µM, respectively. Also, the AC50 in the assay on HTT mRNA (setting [2]) and with HTT mRNA (setting [3]) was less than 100 nM each time.

As for `Cc1cn2nc(-c3ccc4c(=O)n(C5CCNCC5)ncc4c3)nc2c(C)n1` [Compound 259], the IC50 with HTT CJ mRNA (setting [1]), in the assay with SMN2 CJ mRNA (setting [1]) and in the assay with Target C CJ mRNA (setting [1]) was 0.1 to 1 µM in each case. Moreover, the AC50 in the assay with HTT mRNA (setting [2]) and in the assay on HTT mRNA (setting [3]) was 100 to 1000 nM in each case.

Regarding `Cc1cc(-c2ccc3c(=O)n(C4CCNCC4)cnc3c2F)cc2cn(C)nc12` [Compound 234, 7-(2,7-dimethyl-2H-indazol-5-yl)-8-fluoro-3-(piperidin-4-yl)quinazolin-4(3H)-one], the IC50 in the assay with HTT CJ mRNA (setting [1]) was 1 to 10 µM; in the assay with SMN2 CJ mRNA (setting [1]), less than 0.1 µM; in the assay with Target C CJ mRNA (setting [1]), more than 10 µM. The concentration at half-maximal activity (AC50) in the assay with HTT mRNA (setting [2]) and in the assay on HTT mRNA (setting [3]) was 1000 to 10000 nM throughout.

Turning to `CN1CCC(n2cnc3cc(-c4ccc5nn(C)cc5c4)ccc3c2=O)CC1` [Compound 208, 7-(2-methyl-2H-indazol-5-yl)-3-(1-methylpiperidin-4-yl)quinazolin-4(3H)-one], the IC50 in the assay on HTT CJ mRNA (setting [1]) was more than 10 µM; in the assay on SMN2 CJ mRNA (setting [1]), 0.1 to 1 µM; in the assay with Target C CJ mRNA (setting [1]) it was more than 10 µM. Further, the AC50 with HTT mRNA (setting [2]) was more than 10000 nM; in the assay on HTT mRNA (setting [3]), 1000 to 10000 nM.

Regarding `Cc1cn2cc(-c3cc(F)c4c(=O)n(C5CCN(C)CC5)cnc4c3)cc(F)c2n1` [Compound 231, 5-fluoro-7-(8-fluoro-2-methylimidazo[1,2-a]pyridin-6-yl)-3-(1-methylpiperidin-4-yl)quinazolin-4(3H)-one], the IC50 in the assay on HTT CJ mRNA (setting [1]) was 0.1 to 1 µM; in the assay with SMN2 CJ mRNA (setting [1]), less than 0.1 µM; with Target C CJ mRNA (setting [1]) it was 1 to 10 µM. Further, the concentration at half-maximal activity (AC50) in the assay with HTT mRNA (setting [2]) and with HTT mRNA (setting [3]) was 100 to 1000 nM in each case.

With `Cc1cn2nc(-c3ccc4c(=O)n(C5CCNCC5)ncc4c3)cc2c(C)n1` [Compound 260], the IC50 with HTT CJ mRNA (setting [1]) lay within 0.1 to 1 µM; with SMN2 CJ mRNA (setting [1]) it was 0.1 to 1 µM; in the assay on Target C CJ mRNA (setting [1]) it was 1 to 10 µM. Besides, the AC50 in the assay with HTT mRNA (setting [2]) and in the assay with HTT mRNA (setting [3]) was 100 to 1000 nM throughout.

Regarding `Cc1cc(-c2ccc3c(=O)n(C4CCNCC4)ncc3c2)cc2cn(C)nc12` [Compound 251], the IC50 with HTT CJ mRNA (setting [1]) is 0.1 to 1 µM; in the assay on SMN2 CJ mRNA (setting [1]) it was less than 0.1 µM; in the assay with Target C CJ mRNA (setting [1]) it was 0.1 to 1 µM. Further, the AC50 with HTT mRNA (setting [2]) and with HTT mRNA (setting [3]) was 100 to 1000 nM throughout.

Turning to `Cc1cc(-c2nc3ccc(N(C)C4CCN(C)CC4)cc3c(=O)[nH]2)cc2cn(C)nc12` [Compound 239, 2-(2,7-dimethyl-2H-indazol-5-yl)-6-(methyl(1-methylpiperidin-4-yl)amino)quinazolin-4(3H)-one], the IC50 was more than 10 µM with HTT CJ mRNA (setting [1]), 1 to 10 µM in the assay with SMN2 CJ mRNA (setting [1]) and more than 10 µM in the assay with Target C CJ mRNA (setting [1]). The AC50 with HTT mRNA (setting [2]) and in the assay with HTT mRNA (setting [3]) was more than 10000 nM in each case.

As to `Cc1cn2cc(-c3cc(F)c4c(=O)n(C5CCNCC5)cnc4c3)cc(F)c2n1` [Compound 230, 5-fluoro-7-{8-fluoro-2-methylimidazo [1,2-a]pyridin-6-yl}-3-(piperidin-4-yl)quinazolin-4-one], the IC50 in the assay on HTT CJ mRNA (setting [1]), in the assay on SMN2 CJ mRNA (setting [1]) and in the assay with Target C CJ mRNA (setting [1]) was less than 0.1 µM each time. In addition, the AC50 with HTT mRNA (setting [2]) and with HTT mRNA (setting [3]) was less than 100 nM each time.

Consider `CCN1CCC(N2CCc3cc(-c4cc(C)c5nc(C)cn5n4)ccc3C2=O)CC1` [Compound 270], for which the IC50 with HTT CJ mRNA (setting [1]) is 1 to 10 µM; in the assay on SMN2 CJ mRNA (setting [1]) it was 0.1 to 1 µM; in the assay with Target C CJ mRNA (setting [1]) it was more than 10 µM. Further, the AC50 in the assay on HTT mRNA (setting [2]) and in the assay with HTT mRNA (setting [3]) was 1000 to 10000 nM throughout.

`Cc1cn2cc(-c3ccc4c(c3)CCN(C3CCNCC3)C4=O)c(C)cc2n1` [Compound 218]: the IC50 with HTT CJ mRNA (setting [1]), in the assay with SMN2 CJ mRNA (setting [1]) and with Target C CJ mRNA (setting [1]) was 1 to 10 µM each time. Besides, the AC50 with HTT mRNA (setting [2]) and in the assay with HTT mRNA (setting [3]) was 1000 to 10000 nM throughout.

`Cc1cn2cc(-c3ccc4c(=O)n(C5CCNCC5)ncc4c3)cc(Cl)c2n1` [Compound 256]: the IC50 with HTT CJ mRNA (setting [1]) is 0.1 to 1 µM; in the assay on SMN2 CJ mRNA (setting [1]), less than 0.1 µM; in the assay on Target C CJ mRNA (setting [1]), more than 10 µM. The AC50 with HTT mRNA (setting [2]) and in the assay with HTT mRNA (setting [3]) was 100 to 1000 nM throughout.

As to `Cc1cn2cc(-c3ccc4c(=O)n(C5CCNCC5)cnc4c3)cc(F)c2n1` [Compound 205, 7-(8-fluoro-2-methylimidazo[1,2-a]pyridin-6-yl)-3-(piperidin-4-yl)quinazolin-4(3H)-one], the values for the IC50 in the assay on HTT CJ mRNA (setting [1]), in the assay with SMN2 CJ mRNA (setting [1]) and with Target C CJ mRNA (setting [1]) were 0.1 to 1 µM, less than 0.1 µM and 0.1 to 1 µM, respectively. Also, the half-maximal activity concentration (AC50) in the assay on HTT mRNA (setting [2]) and in the assay with HTT mRNA (setting [3]) was 100 to 1000 nM throughout.
